In US7981457B2, “Taste improving substances” (Quest International B.V. & Quest International Services B.V., priority 2004, dated 2011):

Assay: tasting of LC-MS fractions of the product of Example 1
Type: in vivo
Settings: fractions of the Example 1 product, content shown by 1H NMR
Method: 30 g of ethyl lactate and 10 g of GMP were thoroughly mixed in 90 g of glycerol to obtain a clear solution. The mixture was heated under stirring at 120° C. for 1 hour. A white precipitate was formed at the end of the heating period. The mixture was cooled to 70° C. and 100 g of isopropyl alcohol was added followed by stirring. Next, the mixture was filtered over a glass filter and the filter residue was washed three times with 300 g isopropyl alcohol. Thus, 12 g of an almost white powder was obtained. The main taste components of the obtained product were identified using LC-MS and tasting different fractions.

Compound | taste of the fractions containing the substance
CC(O)C(=O)Nc1nc2c(ncn2[C@@H]2O[C@H](COP(=O)(O)O)[C@@H](O)[C@H]2O)c(=O)[nH]1 (some centres unmarked) [N-lactoyl GMP] | “long-lasting” and “kokumi”
O-lactoyl GMP | “long-lasting” and “kokumi”
